Literature values in patent US20070275929A1, “Composition and method for controlling the transmission of noroviruses” (THE DIAL CORPORATION, priority 2006, published 2007).

System: norovirus
Conditions: alcohol alone

CCO [alcohol]
contact time required to reduce norovirus populations by a factor of 3: 30 min
